This assay addresses Recombinant Human Poly(ADP-Ribose) Polymerase (PARP), PARP-1 (Homo sapiens (Human), UniProt P09874). As to conditions: read-out: PARP-1 (Ki).
Where [1] appears, read: Table 1, text calls the values EC50s.

Where two headings read alike, the source gives them in different places.

For 35 molecules, Ki results are on record in US9283222B2 (priority 2006, dated 2016).

Sequence of Recombinant Human Poly(ADP-Ribose) Polymerase (PARP), PARP-1 (P09874 whole entry): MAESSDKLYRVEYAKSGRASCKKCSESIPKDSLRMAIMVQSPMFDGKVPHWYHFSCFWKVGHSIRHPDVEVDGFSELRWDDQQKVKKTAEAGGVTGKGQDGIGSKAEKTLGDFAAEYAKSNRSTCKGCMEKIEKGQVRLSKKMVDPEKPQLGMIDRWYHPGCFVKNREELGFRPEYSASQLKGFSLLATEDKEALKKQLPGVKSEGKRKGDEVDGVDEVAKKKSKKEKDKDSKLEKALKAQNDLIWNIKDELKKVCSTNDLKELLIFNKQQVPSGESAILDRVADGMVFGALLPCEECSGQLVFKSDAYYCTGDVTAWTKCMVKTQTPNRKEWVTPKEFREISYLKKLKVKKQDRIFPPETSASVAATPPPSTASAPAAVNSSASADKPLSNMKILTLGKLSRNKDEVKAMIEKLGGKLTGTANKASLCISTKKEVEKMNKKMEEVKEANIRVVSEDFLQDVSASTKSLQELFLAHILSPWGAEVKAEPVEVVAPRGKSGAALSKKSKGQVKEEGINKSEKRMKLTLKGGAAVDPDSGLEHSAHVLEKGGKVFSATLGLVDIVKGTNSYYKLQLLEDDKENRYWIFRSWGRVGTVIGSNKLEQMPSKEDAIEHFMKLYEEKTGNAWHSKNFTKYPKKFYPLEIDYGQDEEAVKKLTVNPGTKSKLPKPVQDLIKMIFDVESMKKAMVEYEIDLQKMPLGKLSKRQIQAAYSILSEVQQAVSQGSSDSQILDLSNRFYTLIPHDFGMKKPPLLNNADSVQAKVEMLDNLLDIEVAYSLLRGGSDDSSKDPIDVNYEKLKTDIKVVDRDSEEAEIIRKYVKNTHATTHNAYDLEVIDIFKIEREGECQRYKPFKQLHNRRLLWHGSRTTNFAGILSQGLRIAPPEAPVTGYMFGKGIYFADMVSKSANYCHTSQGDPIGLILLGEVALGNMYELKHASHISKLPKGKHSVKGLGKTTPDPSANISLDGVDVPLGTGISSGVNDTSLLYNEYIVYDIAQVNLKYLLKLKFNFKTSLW

A word on the Ki: it is the dissociation constant of the complex between target and ligand, obtained from inhibition or displacement. With `O=C(c1cc(Cc2n[nH]c(=O)c3c2NCCC3)ccc1F)N1CCC(O)CC1` [Example 572, 8-{4-fluoro-3-[(4-hydroxypiperidin-1-yl)carbonyl]benzyl}-2,3,4,6-tetrahydropyrido[2,3-d]pyridazin-5(1H)-one], the Ki under setting [1] was found to be 3 nM.
`O=C(c1cccc(-c2cc(Cc3n[nH]c(=O)c4c3CCCC4)ccc2F)c1)N1CCCC1` [Example 250, 4-((6-fluoro-3′-(pyrrolidin-1-ylcarbonyl)-1,1′-biphenyl-3-yl)methyl)-5,6,7,8-tetrahydrophthalazin-1(2H)-one]: the Ki under setting [1] was 210 nM.
On the same count and under the same terms, the figure for `CN(C)CCCNC(=O)c1cccc(Cc2n[nH]c(=O)c3c2CCCC3)c1` [Example 314, N-(3-(dimethylamino)propyl)-3-((4-oxo-3,4,5,6,7,8-hexahydrophthalazin-1-yl)methyl)benzamide] is 32 nM.
Still for that read-out and setting: with `O=C(c1cc(Cc2n[nH]c(=O)c3c2CCCC3)ccc1F)N1CCN(C2CCCC2)CC1` [Example 575, 4-{3-[(4-cyclopentylpiperazin-1-yl)carbonyl]-4-fluorobenzyl}-5,6,7,8-tetrahydrophthalazin-1(2H)-one] the figure was 2 nM; with `O=C(CCOc1ccccc1)Nc1cc(Cc2n[nH]c(=O)c3c2NCCC3)ccc1F` [Example 478, N-(2-fluoro-5-((5-oxo-1,2,3,4,5,6-hexahydropyrido(2,3-d)pyridazin-8-yl)methyl)phenyl)-3-phenoxypropanamide], 2 nM; with `CC(=O)Nc1cccc(-c2cccc(C(C)c3n[nH]c(=O)c4c3CCCC4)c2)c1` (centres unmarked) [Example 286, N-(3′-(1-(4-oxo-3,4,5,6,7,8-hexahydrophthalazin-1-yl)ethyl)-1,1′-biphenyl-3-yl)acetamide], 58 nM.
For the molecule `O=C(c1cc(Cc2n[nH]c(=O)c3c2NCCC3)ccc1F)N1CCN(c2ncncn2)CC1` [Example 632, 8-(4-fluoro-3-{[4-(1,3,5-triazin-2-yl)piperazin-1-yl]carbonyl}benzyl)-2,3,4,6-tetrahydropyrido[2,3-d]pyridazin-5(1H)-one], the Ki under setting [1] was 0.9 nM.
As to `O=C(Nc1cccc(Cc2n[nH]c(=O)c3c2CCCC3)c1)c1nccs1` [Example 204, N-(3-((4-oxo-3,4,5,6,7,8-hexahydrophthalazin-1-yl)methyl)phenyl)-1,3-thiazole-2-carboxamide], the Ki under setting [1] was 203 nM.
`O=C(c1cnccn1)N1CCN(C(=O)c2cc(Cc3n[nH]c(=O)c4c3NCCC4)ccc2F)CC1` [Example 662, 8-(4-fluoro-3-{[4-(pyrazin-2-ylcarbonyl)piperazin-1-yl]carbonyl}benzyl)-2,3,4,6-tetrahydropyrido[2,3-d]pyridazin-5(1H)-one]: the Ki under setting [1] stood at 1.5 nM.
As to `O=C(c1cnc(O)c(Cl)c1)N1CCN(C(=O)c2cc(Cc3n[nH]c(=O)c4c3CCCC4)ccc2F)CC1` [Example 723, 4-[3-({4-[(5-chloro-6-hydroxypyridin-3-yl)carbonyl]piperazin-1-yl}carbonyl)-4-fluorobenzyl]-5,6,7,8-tetrahydrophthalazin-1(2H)-one], the Ki under setting [1] worked out at 1.3 nM.
Same read-out and setting: the figure for `CN1CCN(C(=O)c2cccc(Cc3n[nH]c(=O)c4c3CCCC4)c2)CC1` [Example 435, 4-(3-((4-methylpiperazin-1-yl)carbonyl)benzyl)-5,6,7,8-tetrahydrophthalazin-1(2H)-one] is 20 nM.
Take `O=C(Nc1ccc(-c2ccccc2)cc1)c1cccc(Cc2n[nH]c(=O)c3c2CCCC3)c1` [Example 337, N-1,1′-biphenyl-4-yl-3-((4-oxo-3,4,5,6,7,8-hexahydrophthalazin-1-yl)methyl)benzamide]: under setting [1], the Ki was determined as 124 nM.
On the same count and under the same terms, with `O=C(c1cc(Cc2n[nH]c(=O)c3c2NCCC3)ccc1F)N1CCN(c2ccc(F)cc2)CC1` [Example 548, 8-(4-fluoro-3-{[4-(4-fluorophenyl)piperazin-1-yl]carbonyl}benzyl)-2,3,4,6-tetrahydropyrido[2,3-d]pyridazin-5(1H)-one] the figure was 2 nM; with `COC(=O)c1ccc(Cc2n[nH]c(=O)c3c2CCCC3)s1` [Example 92, methyl 5-((4-oxo-3,4,5,6,7,8-hexahydrophthalazin-1-yl)methyl)thiophene-2-carboxylate], 167 nM.
Turning to `CC(=O)N1CCN(C(=O)c2cccc(Cc3n[nH]c(=O)c4c3CCCC4)c2)CC1` [Example 438, 4-(3-((4-acetylpiperazin-1-yl)carbonyl)benzyl)-5,6,7,8-tetrahydrophthalazin-1(2H)-one], the Ki under setting [1] was 3 nM.
In the case of `Cn1cncc1C(=O)N1CCCN(C(=O)c2cc(Cc3n[nH]c(=O)c4c3CCCC4)ccc2F)CC1` [Example 637, 4-[4-fluoro-3-({4-[(1-methyl-1H-imidazol-5-yl)carbonyl]-1,4-diazepan-1-yl}carbonyl)benzyl]-5,6,7,8-tetrahydrophthalazin-1(2H)-one], the Ki under setting [1] was found to be 4 nM.
On to `CC(C)C[C@H](NC(=O)Nc1cc(Cc2n[nH]c(=O)c3c2CCCC3)ccc1F)C(=O)O` [Example 626, N-[({2-fluoro-5-[(4-oxo-3,4,5,6,7,8-hexahydrophthalazin-1-yl)methyl]phenyl}amino)carbonyl]leucine], for which the Ki is 173 nM.
`O=C(Nc1cccc(Cc2n[nH]c(=O)c3c2CCCC3)c1)c1ccno1` [Example 208, N-(3-((4-oxo-3,4,5,6,7,8-hexahydrophthalazin-1-yl)methyl)phenyl)isoxazole-5-carboxamide]: the inhibitory constant (Ki) under setting [1] worked out at 22 nM.
Same read-out and setting: the figure for `CN(C)CCN1CCN(C(=O)c2cc(Cc3n[nH]c(=O)c4c3CCCC4)ccc2F)CC1` [Example 501, 4-[3-({4-[2-(dimethylamino)ethyl]piperazin-1-yl}carbonyl)-4-fluorobenzyl]-5,6,7,8-tetrahydrophthalazin-1(2H)-one] is 4 nM.
The same measure, in the same setting: the figure for `CCOc1ccc(C(=O)Nc2cccc(Cc3n[nH]c(=O)c4c3CCCC4)c2)cc1OCC` [Example 238, 3,4-diethoxy-N-(3-((4-oxo-3,4,5,6,7,8-hexahydrophthalazin-1-yl)methyl)phenyl)benzamide] is 47 nM; for `CN(C)CCN(C)C(=O)c1cc(Cc2n[nH]c(=O)c3c2CCCC3)ccc1F` [Example 504, N-[2-(dimethylamino)ethyl]-2-fluoro-N-methyl-5-[(4-oxo-3,4,5,6,7,8-hexahydrophthalazin-1-yl)methyl]benzamide] it is 3.6 nM; for `Cc1cccc(CCNC(=O)c2cccc(Cc3n[nH]c(=O)c4c3CCCC4)c2)c1` [Example 377, N-(2-(3-methylphenyl)ethyl)-3-((4-oxo-3,4,5,6,7,8-hexahydrophthalazin-1-yl)methyl)benzamide] it is 42 nM.
The same measure, in the same setting: the figure for `COc1ccc(C(C)(C)C)cc1NC(=O)c1cccc(Cc2n[nH]c(=O)c3c2CCCC3)c1` [Example 356, N-(5-tert-butyl-2-methoxyphenyl)-3-((4-oxo-3,4,5,6,7,8-hexahydrophthalazin-1-yl)methyl)benzamide] is 180 nM; for `O=C(c1cc(Cc2n[nH]c(=O)c3c2CCCC3)ccc1F)N1CCN(c2ccccn2)CC1` [Example 529, 4-{4-fluoro-3-[(4-pyridin-2-ylpiperazin-1-yl)carbonyl]benzyl}-5,6,7,8-tetrahydrophthalazin-1(2H)-one] it is 2 nM.
`CC(=O)CCCC(=O)Nc1cc(Cc2n[nH]c(=O)c3c2CCCC3)ccc1F` [Example 455, N-(2-fluoro-5-((4-oxo-3,4,5,6,7,8-hexahydrophthalazin-1-yl)methyl)phenyl)-5-oxohexanamide]: the Ki under setting [1] is 1.3 nM.
On the same count and under the same terms, with `Cn1cccc1C(=O)Nc1cccc(Cc2n[nH]c(=O)c3c2CCCC3)c1` [Example 201, 1-methyl-N-(3-((4-oxo-3,4,5,6,7,8-hexahydrophthalazin-1-yl)methyl)phenyl)-1H-pyrrole-2-carboxamide] the figure was 570 nM.
The same measure, in the same setting: the figure for `CN(C(=O)c1cc(Cc2n[nH]c(=O)c3c2NCCC3)ccc1F)C1CCN(C(=O)c2ccccn2)CC1` [Example 721, 2-fluoro-N-methyl-5-[(5-oxo-1,2,3,4,5,6-hexahydropyrido[2,3-d]pyridazin-8-yl)methyl]-N-[1-(pyridin-2-ylcarbonyl)piperidin-4-yl]benzamide] is 3 nM.
For `O=C(NCCc1ccc(F)cc1)c1cccc(Cc2n[nH]c(=O)c3c2CCCC3)c1` [Example 387, N-(2-(4-fluorophenyl)ethyl)-3-((4-oxo-3,4,5,6,7,8-hexahydrophthalazin-1-yl)methyl)benzamide], the Ki under setting [1] worked out at 44 nM.
On the same count and under the same terms, with `O=C1CCCN1c1cccc(Cc2n[nH]c(=O)c3c2CCCC3)n1` [Example 125, 4-((6-(2-oxopyrrolidin-1-yl)pyridin-2-yl)methyl)-5,6,7,8-tetrahydrophthalazin-1(2H)-one] the figure was 47 nM.
`O=C(Nc1cccc(Cc2n[nH]c(=O)c3c2CCCC3)c1)c1ccc(F)cc1F` [Example 182, 2,4-difluoro-N-(3-((4-oxo-3,4,5,6,7,8-hexahydrophthalazin-1-yl)methyl)phenyl)benzamide]: the Ki under setting [1] is 292 nM.
Same read-out and setting: the figure for `O=C(CCCc1cccs1)Nc1cccc(Cc2n[nH]c(=O)c3c2CCCC3)c1` [Example 154, N-(3-((4-oxo-3,4,5,6,7,8-hexahydrophthalazin-1-yl)methyl)phenyl)-4-thien-2-ylbutanamide] is 56 nM; for `CC1CC1C(=O)Nc1cccc(Cc2n[nH]c(=O)c3c2CCCC3)c1` (centres unmarked) [Example 137, 2-methyl-N-(3-((4-oxo-3,4,5,6,7,8-hexahydrophthalazin-1-yl)methyl)phenyl)cyclopropanecarboxamide] it is 69 nM; for `Cc1c(F)cccc1C(=O)Nc1cccc(Cc2n[nH]c(=O)c3c2CCCC3)c1` [Example 178, 3-fluoro-2-methyl-N-(3-((4-oxo-3,4,5,6,7,8-hexahydrophthalazin-1-yl)methyl)phenyl)benzamide] it is 462 nM.
On to `O=C(Nc1ccc(N2CCCCC2)cc1)c1cccc(Cc2n[nH]c(=O)c3c2CCCC3)c1` [Example 362, 3-((4-oxo-3,4,5,6,7,8-hexahydrophthalazin-1-yl)methyl)-N-(4-piperidin-1-ylphenyl)benzamide], for which, under setting [1], the Ki was found to be 185 nM.
Still for that read-out and setting: the figure for `Cc1ccc(CCNC(=O)c2cccc(Cc3n[nH]c(=O)c4c3CCCC4)c2)c(C)c1` [Example 398, N-(2-(2,4-dimethylphenyl)ethyl)-3-((4-oxo-3,4,5,6,7,8-hexahydrophthalazin-1-yl)methyl)benzamide] is 82 nM.
